Converted amounts (≈) assume the structure as drawn.
Experiments:
[1] = system: S. aureus Smith; assay: In vitro antibacterial activity, MIC (standard strain); type: cell-based, Staphylococcus aureus; conditions: Staphylococcus aureus; S. aureus Smith; 10^6 cells/ml; standard strain; read-out: MIC
[2] = system: Streptococcus pyogenes S-8; assay: as above; type: cell-based; conditions: S8; Streptococcus pyogenes S-8; 10^6 cells/ml; standard strain; read-out: MIC
[3] = system: S. pneumoniae IID 552; assay: as above; type: cell-based; conditions: Streptococcus pneumoniae, IID552; S. pneumoniae IID 552; 10^6 cells/ml; standard strain; read-out: MIC
[4] = system: Escherichia coli NIHJ JC-2; assay: as above; type: cell-based; conditions: Escherichia coli, NIHJJC2, Escherichia coli NIHJ JC-2; 10^6 cells/ml; standard strain; read-out: MIC
[5] = system: E. coli ATCC 10536; assay: as above; type: cell-based; conditions: Escherichia coli, ATCC10536; E. coli ATCC 10536; 10^6 cells/ml; standard strain; read-out: MIC
[6] = system: E. coli ML 4707; assay: as above; type: cell-based; conditions: Escherichia coli, ML4707; E. coli ML 4707; 10^6 cells/ml; standard strain; read-out: MIC
[7] = system: Proteus vulgaris IFO 3167; assay: as above; type: cell-based; conditions: IFO3167; Proteus vulgaris IFO 3167; 10^6 cells/ml; standard strain; read-out: MIC
[8] = system: Morganella morganii IID 602; assay: as above; type: cell-based; conditions: IID602; Morganella morganii IID 602; 10^6 cells/ml; standard strain; read-out: MIC
[9] = system: Enterobacter cloacae IID 977; assay: as above; type: cell-based; conditions: Enterobacter cloacae, IID977, Enterobacter cloacae IID 977; 10^6 cells/ml; standard strain; read-out: MIC
[10] = system: Klebsiella pneumoniae KY(GN)6445; assay: as above; type: cell-based; conditions: Klebsiella pneumoniae KY(GN)6445; 10^6 cells/ml; standard strain; read-out: MIC
[11] = system: Salmonella entritidis IID 604; assay: as above; type: cell-based; conditions: IID604; Salmonella entritidis IID 604; 10^6 cells/ml; standard strain; read-out: MIC
[12] = system: Serratia marcescens IID 618; assay: as above; type: cell-based; conditions: Serratia marcescens, IID618, Serratia marcescens IID 618; 10^6 cells/ml; standard strain; read-out: MIC
[13] = system: S. marcescens GN 7577; assay: as above; type: cell-based; conditions: Serratia marcescens, GN7577; S. marcescens GN 7577; 10^6 cells/ml; standard strain; read-out: MIC
[14] = system: P. aeruginosa IFO 12689; assay: as above; type: cell-based, Pseudomonas aeruginosa; conditions: Pseudomonas aeruginosa, IFO12689; P. aeruginosa IFO 12689; 10^6 cells/ml; standard strain; read-out: MIC
[15] = system: P. aeruginosa IID 1210; assay: as above; type: cell-based; conditions: Pseudomonas aeruginosa, IID1210; P. aeruginosa IID 1210; 10^6 cells/ml; standard strain; read-out: MIC
[16] = system: Acinetobacter anitratus IID 876; assay: as above; type: cell-based; conditions: Acinetobacter calcoaceticus, IID876, Acinetobacter anitratus IID 876; 10^6 cells/ml; standard strain; read-out: MIC
[17] = system: B. fragilis 0558; assay: as above; type: cell-based, Bacteroides fragilis; conditions: Bacteroides fragilis, 0558, B. fragilis 0558; 10^6 cells/ml; standard strain; read-out: MIC
[18] = system: Fusobacterium varium KYA 8501; assay: as above; type: cell-based; conditions: Fusobacterium varium, KYA8501, Fusobacterium varium KYA 8501; 10^6 cells/ml; standard strain; read-out: MIC
[19] = system: Clostridium perfringens KYA 13123; assay: microbe, parasite or virus in culture; type: cell-based; conditions: KYA13123
[20] = system: C. ramosum; assay: In vitro antibacterial activity, MIC (standard strain); type: cell-based; conditions: Thomasclavelia ramosa; C. ramosum; 10^6 cells/ml; standard strain; read-out: MIC
[21] = system: S. pneumoniae 15; assay: In vitro antibacterial activity, MIC (clinical isolates); type: cell-based; conditions: Streptococcus pneumoniae; S. pneumoniae 15; 10^6 cells/ml; clinical isolate; read-out: MIC
[22] = system: S. pyogenes 3130; assay: as above; type: cell-based; conditions: Streptococcus pyogenes, read-out: MIC
[23] = system: S. pyogenes 3102; assay: as above; type: cell-based; conditions: Streptococcus pyogenes; S. pyogenes 3102; 10^6 cells/ml; clinical isolate; read-out: MIC
[24] = system: S. pyogenes 3107; assay: as above; type: cell-based; conditions: Streptococcus pyogenes; S. pyogenes 3107; 10^6 cells/ml; clinical isolate; read-out: MIC
[25] = system: S. agalactiae 4049; assay: as above; type: cell-based; conditions: Streptococcus agalactiae; S. agalactiae 4049; 10^6 cells/ml; clinical isolate; read-out: MIC
[26] = system: S. agalactiae 4470; assay: as above; type: cell-based; conditions: Streptococcus agalactiae; S. agalactiae 4470; 10^6 cells/ml; clinical isolate; read-out: MIC
[27] = system: S. agalactiae 4368; assay: as above; type: cell-based; conditions: Streptococcus agalactiae; S. agalactiae 4368; 10^6 cells/ml; clinical isolate; read-out: MIC
[28] = system: S. agalactiae 4468; assay: as above; type: cell-based; conditions: Streptococcus agalactiae; S. agalactiae 4468; 10^6 cells/ml; clinical isolate; read-out: MIC
[29] = system: S. faecalis 49; assay: as above; type: cell-based; conditions: Enterococcus faecalis; S. faecalis 49; 10^6 cells/ml; clinical isolate; read-out: MIC
[30] = system: S. faecalis 214; assay: as above; type: cell-based; conditions: Enterococcus faecalis; S. faecalis 214; 10^6 cells/ml; clinical isolate; read-out: MIC
[31] = system: S. faecalis 402; assay: as above; type: cell-based; conditions: Enterococcus faecalis; S. faecalis 402; 10^6 cells/ml; clinical isolate; read-out: MIC

| SMILES | MIC [1] | MIC [2] | MIC [3] | MIC [4] | MIC [5] | MIC [6] | MIC [7] | MIC [8] | MIC [9] | MIC [10] | MIC [11] | MIC [12] | MIC [13] | MIC [14] | MIC [15] | MIC [16] | MIC [17] | MIC [18] | MIC [19] | MIC [20] | further results |
| --- | --- | --- | --- | --- | --- | --- | --- | --- | --- | --- | --- | --- | --- | --- | --- | --- | --- | --- | --- | --- | --- |
| CCNCC1CCN(c2c(F)cc3c(=O)c(C(=O)O)cn(C4CC4)c3c2Br)C1 (stereo not drawn) [Example 17, 8-Bromo-l-cyclopropyl-7-(3-ethylaminomethyl-l-pyrrolidinyl)-6-fluoro-1,4-dihydro-4-oxo-3-quinolinecarboxylic acid] | 0.0125 µg/mL (≈ 0.0276 µM) | 0.05 µg/mL (≈ 0.111 µM) | 0.05 µg/mL (≈ 0.111 µM) | 0.0125 µg/mL (≈ 0.0276 µM) | 0.025 µg/mL (≈ 0.0553 µM) | 0.025 µg/mL (≈ 0.0553 µM) | 0.025 µg/mL (≈ 0.0553 µM) | 0.2 µg/mL (≈ 0.442 µM) | 0.1 µg/mL (≈ 0.221 µM) | 0.05 µg/mL (≈ 0.111 µM) | 0.1 µg/mL (≈ 0.221 µM) | 0.1 µg/mL (≈ 0.221 µM) | 0.78 µg/mL (≈ 1.72 µM) | 3.13 µg/mL (≈ 6.92 µM) | 1.56 µg/mL (≈ 3.45 µM) | 0.05 µg/mL (≈ 0.111 µM) | ≤ 0.05 µg/mL | 0.39 µg/mL (≈ 0.862 µM) | 0.1 µg/mL (≈ 0.221 µM) | 0.39 µg/mL (≈ 0.862 µM) | MIC [21]: 0.05 µg/mL (≈ 0.111 µM); MIC [22]: 0.05 µg/mL (≈ 0.111 µM); MIC [23]: 0.05 µg/mL (≈ 0.111 µM); MIC [24]: 0.05 µg/mL (≈ 0.111 µM); MIC [25]: 0.05 µg/mL (≈ 0.111 µM); MIC [26]: 0.05 µg/mL (≈ 0.111 µM); MIC [27]: 0.05 µg/mL (≈ 0.111 µM); MIC [28]: 0.05 µg/mL (≈ 0.111 µM); MIC [29]: 0.1 µg/mL (≈ 0.221 µM); MIC [30]: 0.1 µg/mL (≈ 0.221 µM); MIC [31]: 0.1 µg/mL (≈ 0.221 µM) |
| CN(C)CC1CCN(c2c(F)cc3c(=O)c(C(=O)O)cn(C4CC4)c3c2Cl)C1 (stereo not drawn) [Example 20, 8-Chloro-1-cyclopropyl-6-fluoro-1,4-dihydro-7-(3-dimethylaminomethyl-l-pyrrolidinyl)-4-oxo-3-quinolinecarboxylic acid] | 0.025 µg/mL (≈ 0.0613 µM) | 0.05 µg/mL (≈ 0.123 µM) | 0.05 µg/mL (≈ 0.123 µM) | 0.025 µg/mL (≈ 0.0613 µM) | 0.025 µg/mL (≈ 0.0613 µM) | 0.05 µg/mL (≈ 0.123 µM) | 0.05 µg/mL (≈ 0.123 µM) | 0.2 µg/mL (≈ 0.49 µM) | 0.1 µg/mL (≈ 0.245 µM) | 0.05 µg/mL (≈ 0.123 µM) | 0.1 µg/mL (≈ 0.245 µM) | 0.1 µg/mL (≈ 0.245 µM) | 1.56 µg/mL (≈ 3.82 µM) | 3.13 µg/mL (≈ 7.67 µM) | 1.56 µg/mL (≈ 3.82 µM) | 0.05 µg/mL (≈ 0.123 µM) | ≤ 0.05 µg/mL | 0.78 µg/mL (≈ 1.91 µM) | 0.1 µg/mL (≈ 0.245 µM) | 0.39 µg/mL (≈ 0.956 µM) | MIC [21]: 0.05 µg/mL (≈ 0.123 µM); MIC [22]: 0.05 µg/mL (≈ 0.123 µM); MIC [23]: 0.05 µg/mL (≈ 0.123 µM); MIC [24]: 0.05 µg/mL (≈ 0.123 µM); MIC [25]: 0.1 µg/mL (≈ 0.245 µM); MIC [26]: 0.1 µg/mL (≈ 0.245 µM); MIC [27]: 0.05 µg/mL (≈ 0.123 µM); MIC [28]: 0.1 µg/mL (≈ 0.245 µM); MIC [29]: 0.1 µg/mL (≈ 0.245 µM); MIC [30]: 0.1 µg/mL (≈ 0.245 µM); MIC [31]: 0.1 µg/mL (≈ 0.245 µM) |
| CN(C)CC1CCN(c2c(F)cc3c(=O)c(C(=O)O)cn(C4CC4)c3c2F)C1 (stereo not drawn) [Example 21, 1-Cyclopropyl-6,8-difluoro-1,4-dihydro-7-(3-dimethylaminomethyl-1-pyrrolidinyl)-4-oxo-3-quinolinecarboxylic acid] | 0.05 µg/mL (≈ 0.128 µM) | 0.1 µg/mL (≈ 0.255 µM) | 0.2 µg/mL (≈ 0.511 µM) | 0.05 µg/mL (≈ 0.128 µM) | 0.05 µg/mL (≈ 0.128 µM) | 0.05 µg/mL (≈ 0.128 µM) | 0.05 µg/mL (≈ 0.128 µM) | 0.2 µg/mL (≈ 0.511 µM) | 0.2 µg/mL (≈ 0.511 µM) | 0.05 µg/mL (≈ 0.128 µM) | 0.1 µg/mL (≈ 0.255 µM) | 0.2 µg/mL (≈ 0.511 µM) | 1.56 µg/mL (≈ 3.99 µM) | 3.13 µg/mL (≈ 8 µM) | 3.13 µg/mL (≈ 8 µM) | 0.05 µg/mL (≈ 0.128 µM) | 0.2 µg/mL (≈ 0.511 µM) | 3.13 µg/mL (≈ 8 µM) | 0.2 µg/mL (≈ 0.511 µM) | 0.78 µg/mL (≈ 1.99 µM) | MIC [21]: 0.2 µg/mL (≈ 0.511 µM); MIC [22]: 0.1 µg/mL (≈ 0.255 µM); MIC [23]: 0.1 µg/mL (≈ 0.255 µM); MIC [24]: 0.1 µg/mL (≈ 0.255 µM); MIC [25]: 0.2 µg/mL (≈ 0.511 µM); MIC [26]: 0.2 µg/mL (≈ 0.511 µM); MIC [27]: 0.2 µg/mL (≈ 0.511 µM); MIC [28]: 0.2 µg/mL (≈ 0.511 µM); MIC [29]: 0.2 µg/mL (≈ 0.511 µM); MIC [30]: 0.2 µg/mL (≈ 0.511 µM); MIC [31]: 0.2 µg/mL (≈ 0.511 µM) |

Source: patent EP0183129A1, “Quinolonecarboxylic acid derivatives” (KYORIN PHARMACEUTICAL CO., LTD., priority 1984, dated 1986)
